One may read the Ki as a dissociation constant, usually derived from enzyme kinetics or from competition with a known ligand.

In the test the target is GST-Bc1-2 (Homo sapiens, UniProt P10415). Description: Time Resolved-Fluorescence Resonance Energy Transfer (TR-FRET) Bcl-2 binding assay with F-Bak peptide probe. The settings on record: GST-Bcl-2 1 nM, F-Bak probe 100 nM, Tb-anti-GST 1 nM; '<' = below limit of detection; read-out: TR-FRET Bcl-2 Binding Ki. In general terms: TR-FRET usually uses a lanthanide donor and a delayed reading to cut background.
Chain of GST-Bc1-2 (P10415 whole entry): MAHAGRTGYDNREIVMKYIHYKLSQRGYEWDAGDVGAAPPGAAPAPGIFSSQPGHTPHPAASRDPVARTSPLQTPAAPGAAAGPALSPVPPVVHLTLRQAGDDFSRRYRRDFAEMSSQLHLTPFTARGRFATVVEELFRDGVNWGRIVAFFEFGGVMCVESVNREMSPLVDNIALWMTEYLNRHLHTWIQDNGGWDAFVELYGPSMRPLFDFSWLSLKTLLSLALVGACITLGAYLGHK
In the case of `CC1(C)CC(c2ccc(Cl)cc2)=C(CN2CCN(c3ccc(C(=O)NS(=O)(=O)c4cnc(OCC5CCOCC5)c(C#N)c4)c(Oc4cnc5[nH]ccc5c4)c3)CC2)CO1` [Example 35, 4-(4-{[4-(4-chlorophenyl)-6,6-dimethyl-5,6-dihydro-2H-pyran-3-yl]methyl}piperazin-1-yl)-N-{[5-cyano-6-(tetrahydro-2H-pyran-4-ylmethoxy)pyridin-3-yl]sulfonyl}-2-(1H-pyrrolo[2,3-b]pyridin-5-yloxy)benzamide], the Ki was less than 0.01 nM. To `CC1(C)CCC(CN2CCN(c3ccc(C(=O)NS(=O)(=O)c4cnc(OCC5CCOCC5)c(C#N)c4)c(Oc4cnc5[nH]ccc5c4)c3)CC2)=C(c2ccc(Cl)cc2)C1` [Example 36, 4-(4-{[2-(4-chlorophenyl)-4,4-dimethylcyclohex-1-en-1-yl]methyl}piperazin-1-yl)-N-{[5-cyano-6-(tetrahydro-2H-pyran-4-ylmethoxy)pyridin-3-yl]sulfonyl}-2-(1H-pyrrolo[2,3-b]pyridin-5-yloxy)benzamide] belongs 0.017 nM; to `CC1(C)CCC(CN2CCN(c3ccc(C(=O)NS(=O)(=O)c4ccc(OCC5(F)CCOCC5)c([N+](=O)[O-])c4)c(Oc4cnc5[nH]ccc5c4)c3)CC2)=C(c2ccc(Cl)cc2)C1` [Example 37, 4-(4-{[2-(4-chlorophenyl)-4,4-dimethylcyclohex-1-en-1-yl]methyl}piperazin-1-yl)-N-({4-[(4-fluorotetrahydro-2H-pyran-4-yl)methoxy]-3-nitrophenyl}sulfonyl)-2-(1H-pyrrolo[2,3-b]pyridin-5-yloxy)benzamide], less than 0.01 nM. To `CC1(C)CCC(CN2CCN(c3ccc(C(=O)NS(=O)(=O)c4ccc(OCC5CCOCC5)c(C(N)=O)c4)c(Oc4cnc5[nH]ccc5c4)c3)CC2)=C(c2ccc(Cl)cc2)C1` [Example 38, N-{[3-(aminocarbonyl)-4-(tetrahydro-2H-pyran-4-ylmethoxy)phenyl]sulfonyl}-4-(4-{[2-(4-chlorophenyl)-4,4-dimethylcyclohex-1-en-1-yl]methyl}piperazin-1-yl)-2-(1H-pyrrolo[2,3-b]pyridin-5-yloxy)benzamide] belongs 0.3 nM. For the molecule `CC1(C)CCC(CN2CCN(c3ccc(C(=O)NS(=O)(=O)c4ccc(N[C@H]5CC[C@@H](N6CCOCC6)CC5)c([N+](=O)[O-])c4)c(Oc4cnc5[nH]ccc5c4)c3)CC2)=C(c2ccc(Cl)cc2)C1` [Example 39, Cis-4-(4-{[2-(4-chlorophenyl)-4,4-dimethylcyclohex-1-en-1-yl]methyl}piperazin-1-yl)-N-({4-[(4-morpholin-4-ylcyclohexyl)amino]-3-nitrophenyl}sulfonyl)-2-(1H-pyrrolo[2,3-b]pyridin-5-yloxy)benzamide], the Ki is 0.012 nM. In the case of `CC1(C)CCC(CN2CCN(c3ccc(C(=O)NS(=O)(=O)c4cnc(OCC5CCOCC5)c(Cl)c4)c(Oc4cnc5[nH]ccc5c4)c3)CC2)=C(c2ccc(Cl)cc2)C1` [Example 40, 4-(4-{[2-(4-chlorophenyl)-4,4-dimethylcyclohex-1-en-1-yl]methyl}piperazin-1-yl)-N-{[5-chloro-6-(tetrahydro-2H-pyran-4-ylmethoxy)pyridin-3-yl]sulfonyl}-2-(1H-pyrrolo[2,3-b]pyridin-5-yloxy)benzamide] it was less than 0.01 nM. In the case of `CC1(C)CC(c2ccc(Cl)cc2)=C(CN2CCN(c3ccc(C(=O)NS(=O)(=O)c4cnc(OCC5CCOCC5)c(Cl)c4)c(Oc4cnc5[nH]ccc5c4)c3)CC2)CO1` [Example 41, 4-(4-{[4-(4-chlorophenyl)-6,6-dimethyl-5,6-dihydro-2H-pyran-3-yl]methyl}piperazin-1-yl)-N-{[5-chloro-6-(tetrahydro-2H-pyran-4-ylmethoxy)pyridin-3-yl]sulfonyl}-2-(1H-pyrrolo[2,3-b]pyridin-5-yloxy)benzamide] it was less than 0.01 nM.
